Measurements reported in the NIST ThermoML archive (doi:10.1016/j.jct.2011.10.014).
Values joined by “and” are separate entries in the source; they are usually repeats but may differ in a detail not shown here. Equal values may be shown once.

Assay: molar heat capacity at constant pressure
Details: 101.33 kPa, Crystal, Vacuum adiabatic calorimetry

O=C([O-])[O-].[Pb+2] [lead(II) carbonate]
Details	molar heat capacity at constant pressure
270.38 K	84.12 J/K/mol
270.68 K	83.45 J/K/mol
270.74 K	83.86 J/K/mol
271.04 K	84.03 J/K/mol
271.2 K	83.78 J/K/mol
271.36 K	84.03 J/K/mol
271.7 K	84.69 J/K/mol
272.07 K	84.59 J/K/mol
272.26 K	84.68 J/K/mol
272.43 K	85.87 J/K/mol
272.67 K	88.34 J/K/mol
272.77 K	85.64 J/K/mol
273.1 K	94.33 J/K/mol
273.15 K	83.77 J/K/mol
273.3 K	90.01 J/K/mol
273.43 K	87.85 J/K/mol
273.58 K	87.5 J/K/mol
273.76 K	86.34 J/K/mol
274.21 K	85.21 J/K/mol
274.36 K	85.11 J/K/mol
274.43 K	85.57 J/K/mol
274.92 K	84.78 J/K/mol
275.09 K	85.53 J/K/mol
275.43 K	85.37 J/K/mol
275.61 K	85.08 J/K/mol
275.62 K	85.95 J/K/mol
275.76 K	86.02 J/K/mol
276.3 K	85.69 J/K/mol
276.44 K	86.06 J/K/mol
276.47 K	85.96 J/K/mol
276.49 K	86.54 J/K/mol
276.98 K	85.66 J/K/mol
277.13 K	85.86 J/K/mol
277.55 K	87.21 J/K/mol
277.67 K	85.56 J/K/mol
277.8 K	86.13 J/K/mol
278.35 K	85.61 J/K/mol
278.49 K	85.51 J/K/mol
278.57 K	85.33 J/K/mol
278.64 K	85.79 J/K/mol
279.04 K	84.8 J/K/mol
279.16 K	84.95 J/K/mol
279.34 K	85.02 J/K/mol
279.74 K	85.51 J/K/mol and 84.58 J/K/mol
279.84 K	84.46 J/K/mol
280 K	84.69 J/K/mol
280.48 K	84.25 J/K/mol
280.51 K	84.4 J/K/mol
280.87 K	84.45 J/K/mol
281.17 K	84.41 J/K/mol
281.18 K	84.61 J/K/mol
281.61 K	84.92 J/K/mol
281.86 K	84.62 J/K/mol
281.87 K	84.51 J/K/mol
282.22 K	84.71 J/K/mol
282.54 K	84.79 J/K/mol
283.3 K	84.95 J/K/mol
283.98 K	85.16 J/K/mol
284.55 K	85.29 J/K/mol
284.68 K	85.43 J/K/mol
285.39 K	85.19 J/K/mol
286.07 K	85.27 J/K/mol
286.75 K	85.41 J/K/mol
287.43 K	85.38 J/K/mol
287.49 K	85.63 J/K/mol
288.12 K	85.33 J/K/mol
288.8 K	85.51 J/K/mol
289.49 K	85.71 J/K/mol
290 K	86.01 J/K/mol
290.41 K	86 J/K/mol
293.33 K	86.4 J/K/mol
296.23 K	86.78 J/K/mol
298.15 K	87.07 J/K/mol
299.12 K	87.18 J/K/mol
300 K	87.3 J/K/mol
302 K	87.59 J/K/mol
304.88 K	87.95 J/K/mol
307.76 K	88.29 J/K/mol
310 K	88.56 J/K/mol
310.62 K	88.63 J/K/mol
313.49 K	89 J/K/mol
316.35 K	89.34 J/K/mol
320 K	89.76 J/K/mol
